In patent US6518290B1, “Substituted oxazoles and thiazoles derivatives as HPPAr alpha activators” (priority 1999, dated 2003):

How the values were obtained:
Type in all cases: cell-based
[1] = target: T1, human PPAR alpha (Homo sapiens, UniProt Q07869); assay: PPAR transient transfection (transactivation) assay in CV-1 cells, hPPAR alpha; details: PPAR LBD-GAL4 chimera, SPAP reporter, 24 h with compound, read-out: human αEC50
T1 construct: expressed in transfected cells; host or cells: CV-1 cells
T1 sequence (Q07869 239-466 limits assumed): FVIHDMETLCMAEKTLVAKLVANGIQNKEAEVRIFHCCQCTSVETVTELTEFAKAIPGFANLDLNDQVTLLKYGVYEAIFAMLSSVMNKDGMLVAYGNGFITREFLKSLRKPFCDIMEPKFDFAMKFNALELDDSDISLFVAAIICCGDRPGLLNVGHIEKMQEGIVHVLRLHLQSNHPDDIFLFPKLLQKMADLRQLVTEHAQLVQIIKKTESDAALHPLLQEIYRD
From the text: Compounds were screened for functional potency in transient transfection assays in CV-1 cells for their ability to activate the PPAR subtypes (transactivation assay). A previously established chimeric receptor system was utilized to allow comparison of the relative transcriptional activity of the receptor subtypes on the same target gene and to prevent endogenous receptor activation from complicating the interpretation of results. See, for example, Lehmann, J. M.; Moore, L. B.; Smith-Oliver, T. A.; Wilkison, W. O.; Willson, T. M.; Kliewer, S. A., An antidiabetic thiazolidinedione is a high affinity ligand for peroxisome proliferator-activated receptor γ (PPARγ), J. Biol. Chem., 1995, 270, 12953-6. The ligand binding domains for murine and human PPAR alpha, PPAR gamma, and PPAR delta were each fused to the yeast transcription factor GAL4 DNA binding domain. CV-1 cells were transiently transfected with expression vectors for the respective PPAR chimera along with a reporter construct containing five copies of the GAL4 DNA binding site driving expression of secreted placental alkaline phosphatase (SPAP) and β-galactosidase. After 16 h, the medium was exchanged to DME medium supplemented with 10% delipidated fetal calf serum and the test compound at the appropriate concentration. After an additional 24 h, cell extracts were prepared and assayed for alkaline phosphatase and β-galactosidase activity. […] Rosiglitazone (BRL 49653) was used as a positive control in the hPPAR gamma assay. The positive control in the hPPAR alpha assays was 2-(2-methyl-3-[3-{3-(4-cyclohexylamino)-[6-(4-fluorophenylpiperazin-1-yl)][1,3,5]triazin-2-ylamino}propyl]phenylthio)-2-methylpropionic acid. The positive control for PPAR delta assays was 2-{2-methyl-4-[({4-methyl-2-{trifluoromethyl)phenyl]-1,3-thiazol-5-yl}methyl)sulfanyl]phenoxy}acetic acid.

[2] = target: T2, human PPAR delta (Homo sapiens, UniProt Q03181); assay: PPAR transient transfection (transactivation) assay in CV-1 cells, PPAR delta; details: PPAR LBD-GAL4 chimera, SPAP reporter, 24 h with compound, read-out: human δEC50
T2 construct: expressed in transfected cells; host or cells: CV-1 cells
T2 sequence (Q03181 211-439 limits assumed): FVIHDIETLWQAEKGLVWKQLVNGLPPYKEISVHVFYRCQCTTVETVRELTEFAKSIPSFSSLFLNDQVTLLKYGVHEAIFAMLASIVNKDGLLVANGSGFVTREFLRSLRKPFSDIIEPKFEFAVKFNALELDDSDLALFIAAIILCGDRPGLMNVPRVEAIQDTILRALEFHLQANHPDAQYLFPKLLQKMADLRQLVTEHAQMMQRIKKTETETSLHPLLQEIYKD
From the text: (§1) Compounds were screened for functional potency in transient transfection assays in CV-1 cells for their ability to activate the PPAR subtypes (transactivation assay). A previously established chimeric receptor system was utilized to allow comparison of the relative transcriptional activity of the receptor subtypes on the same target gene and to prevent endogenous receptor activation from complicating the interpretation of results. See, for example, Lehmann, J. M.; Moore, L. B.; Smith-Oliver, T. A.; Wilkison, W. O.; Willson, T. M.; Kliewer, S. A., An antidiabetic thiazolidinedione is a high affinity ligand for peroxisome proliferator-activated receptor γ (PPARγ), J. Biol. Chem., 1995, 270, 12953-6. The ligand binding domains for murine and human PPAR alpha, PPAR gamma, and PPAR delta were each fused to the yeast transcription factor GAL4 DNA binding domain. CV-1 cells were transiently transfected with expression vectors for the respective PPAR chimera along with a reporter construct containing five copies of the GAL4 DNA binding site driving expression of secreted placental alkaline phosphatase (SPAP) and β-galactosidase. After 16 h, the medium was exchanged to DME medium supplemented with 10% delipidated fetal calf serum and the test compound at the appropriate concentration. After an additional 24 h, cell extracts were prepared and assayed for alkaline phosphatase and β-galactosidase activity. Alkaline phosphatase activity was corrected for transfection efficiency using the β-galactosidase activity as an internal standard (see, for example, Kliewer, S. A., et. al. Cell 83, 813-819 (1995)). Rosiglitazone (BRL 49653) was used as a positive control in the hPPAR gamma assay. The positive control in the hPPAR alpha assays was 2-(2-methyl-3-[3-{3-(4-cyclohexylamino)-[6-(4-fluorophenylpiperazin-1-yl)][1,3,5]triazin-2-ylamino}propyl]phenylthio)-2-methylpropionic acid. The positive control for PPAR delta assays was 2-{2-methyl-4-[({4-methyl-2-{trifluoromethyl)phenyl]-1,3-thiazol-5-yl}methyl)sulfanyl]phenoxy}acetic acid.

[3] = target: T3, human PPAR gamma (Homo sapiens, UniProt P37231); assay: PPAR transient transfection (transactivation) assay in CV-1 cells, hPPAR gamma; details: PPAR LBD-GAL4 chimera, SPAP reporter, 24 h with compound, read-out: human γEC50
T3 construct: expressed in transfected cells; host or cells: CV-1 cells
T3 sequence (P37231 238-503 limits assumed): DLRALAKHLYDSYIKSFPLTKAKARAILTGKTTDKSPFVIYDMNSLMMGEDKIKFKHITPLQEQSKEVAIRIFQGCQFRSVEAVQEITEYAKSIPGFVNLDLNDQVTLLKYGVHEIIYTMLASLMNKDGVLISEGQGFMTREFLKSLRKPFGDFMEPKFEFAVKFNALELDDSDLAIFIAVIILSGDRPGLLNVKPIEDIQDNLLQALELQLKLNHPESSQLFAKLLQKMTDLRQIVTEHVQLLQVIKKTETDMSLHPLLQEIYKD
From the text: as §1

Structure (SMILES) | EC50 [1] | EC50 [2] | EC50 [3]
CCOC(=O)C(C)(C)Oc1ccc(CNC(=O)c2sc(-c3ccc(C(F)(F)F)cc3)nc2C)cc1 [Example 1, 2-Methyl-2-[4-{[(4-methyl-2-[4-trifluoromethylphenyl]thiazol-5-ylcarbonyl)amino]methyl}phenoxy]propionic Acid Ethyl Ester] | 0.017 µM | ≥ 10 µM | ≥ 10 µM
Cc1nc(-c2ccc(C(F)(F)F)cc2)sc1C(=O)N(C)Cc1ccc(OC(C)(C)C(=O)O)cc1 [Example 6, N-Methyl-2-methyl-2-[4-{[(4-methyl-2-[4-trifluoromethylphenyl]-thiazol-5-ylcarbonyl)amino]methyl}phenoxy]propionic Acid] | 0.23 µM | ≥ 10 µM | ≥ 10 µM
Cc1nc(-c2ccc(C(F)(F)F)cc2)sc1C(=O)NCCc1ccc(OC(C)(C)C(=O)O)cc1 [Example 10, 2-Methyl-2-[4-{[(4-methyl-2-[4-trifluoromethylphenyl]-thiazol-5-ylcarbonyl)amino]ethyl}phenoxy]propionic Acid] | 0.108 µM | ≥ 10 µM | ≥ 10 µM
Cc1nc(-c2ccc(C(C)(C)C)cc2)sc1C(=O)NCc1ccc(OC(C)(C)C(=O)O)cc1 [Example 13, 2-Methyl-2-[4-{[(4-methyl-2-[4-tertbutylphenyl]-thiazol-5-ylcarbonyl)amino]methyl}phenoxy]propionic Acid] | 0.005 µM | ≥ 10 µM | 0.85 µM
Cc1nc(-c2ccc(C(C)C)cc2)sc1C(=O)NCc1ccc(OC(C)(C)C(=O)O)cc1 [Example 15, 2-Methyl-2-[4-{[(4-methyl-2-[4-isopropylphenyl]-thiazol-5-ylcarbonyl)amino]methyl}phenoxy]propionic Acid] | 0.001 µM | 4.37 µM | 2.64 µM
Cc1nc(-c2ccc([N+](=O)[O-])cc2)sc1C(=O)NCc1ccc(OC(C)(C)C(=O)O)cc1 [Example 17, 2-Methyl-2-[4-{[(4-methyl-2-[4-nitrophenyl]-thiazol-5-ylcarbonyl)amino]methyl}phenoxy]propionic Acid] | 0.027 µM | ≥ 10 µM | ≥ 10 µM
CCc1ccc(-c2nc(C)c(C(=O)NCc3ccc(OC(C)(C)C(=O)O)cc3)s2)cc1 [Example 27, 2-Methyl-2-[4-{[(4-methyl-2-[4-ethylphenyl]-thiazol-5-ylcarbonyl)amino]methyl}phenoxy]propionic Acid] | 0.002 µM | 4.08 µM | 8.82 µM
Cc1nc(-c2ccccc2)sc1C(=O)NCc1ccc(OC(C)(C)C(=O)O)cc1 [Example 29, 2-Methyl-2-[4-{[(4-methyl-2-phenylthiazol-5-ylcarbonyl)amino]methyl}phenoxy]propionic Acid] | 0.122 µM | ≥ 10 µM | ≥ 10 µM
COc1ccc(-c2nc(C)c(C(=O)NCc3ccc(OC(C)(C)C(=O)O)cc3)s2)cc1 [Example 37, 2-Methyl-2-[4-{[(4-methyl-2-[4-methoxyphenyl]-thiazol-5-ylcarbonyl)amino]methyl}phenoxy]propionic Acid] | 0.02 µM | ≥ 10 µM | ≥ 10 µM
C#Cc1ccc(-c2nc(C)c(C(=O)NCc3ccc(OC(C)(C)C(=O)O)cc3)s2)cc1 [Example 39, 2-Methyl-2-[4-{[(4-methyl-2-[4-acetylenylphenyl]-thiazol-5-ylcarbonyl)amino]methyl}phenoxy]propionic Acid] | 0.036 µM | 2.48 µM | ≥ 10 µM
CC(C)(Oc1ccc(CNC(=O)c2sc(-c3ccc(C(F)(F)F)cc3)nc2C(F)(F)F)cc1)C(=O)O [Example 41, 2-Methyl-2-[4-{[(4-trifluoromethyl-2-[4-trifluoromethylphenyl]-thiazol-5-ylcarbonyl)amino]methyl}phenoxy]propionic Acid] | 0.005 µM | ≥ 10 µM | 0.832 µM
Cc1nc(-c2ccc(C(F)(F)F)cc2)oc1C(=O)NCc1ccc(OC(C)(C)C(=O)O)cc1 [Example 45, 2-Methyl-2-[4-{[(4-methyl-2-[4-trifluoromethylphenyl]-oxazol-5-ylcarbonyl)amino]methyl}phenoxy]propionic Acid] | 0.4 µM | 1.64 µM | ≥ 10 µM

Further lines, results first:

EC50 [1] | EC50 [2] | EC50 [3] | Structure (SMILES)
– | 2.95 µM | ≥ 10 µM | Cc1nc(-c2ccc(C(F)(F)F)cc2)sc1C(=O)NCc1ccc(OC(C)(C)C(=O)O)cc1 [Example 2, 2-Methyl-2-[4-{[(4-methyl-2-[4-trifluoromethylphenyl]-thiazol-5-ylcarbonyl)amino]methyl}phenoxy]propionic Acid]
0.028 µM | ≥ 10 µM | ≥ 10 µM | Cc1nc(-c2ccc(Cl)c(Cl)c2)sc1C(=O)NCc1ccc(OC(C)(C)C(=O)O)cc1 [Example 21, 2-Methyl-2-[4-{[(4-methyl-2-[3,4-dichlorophenyl]-thiazol-5-ylcarbonyl)amino]methyl}phenoxy]propionic Acid]
0.007 µM | 9.19 µM | ≥ 10 µM | Cc1nc(-c2ccc(C(F)(F)F)c(F)c2)sc1C(=O)NCc1ccc(OC(C)(C)C(=O)O)cc1 [Example 23, 2-Methyl-2-[4-{[(4-methyl-2-[3-fluoro-4-trifluoromethylphenyl]-thiazol-5-ylcarbonyl)amino]methyl}phenoxy]propionic Acid]
0.01 µM | 2.7 µM | ≥ 10 µM | Cc1nc(-c2ccc(Br)cc2)sc1C(=O)NCc1ccc(OC(C)(C)C(=O)O)cc1 [Example 25, 2-Methyl-2-[4-{[(4-methyl-2-[4-bromophenyl]-thiazol-5-ylcarbonyl)amino]methyl}phenoxy]propionic Acid]
0.014 µM | 5.35 µM | ≥ 10 µM | Cc1nc(-c2ccc(Cl)cc2)sc1C(=O)NCc1ccc(OC(C)(C)C(=O)O)cc1 [Example 33, 2-Methyl-2-[4-{[(4-methyl-2-[4-chlorophenyl]-thiazol-5-ylcarbonyl)amino]methyl}phenoxy]propionic Acid]
0.004 µM | 4.59 µM | ≥ 10 µM | Cc1nc(-c2ccc(OC(F)(F)F)cc2)sc1C(=O)NCc1ccc(OC(C)(C)C(=O)O)cc1 [Example 35, 2-Methyl-2-[4-{[(4-methyl-2-[4-trifluoromethoxyphenyl]-thiazol-5-ylcarbonyl)amino]methyl}phenoxy]propionic Acid]
